Bounds are passed on as bounds.

This experiment addresses T1, Tyrosine-protein phosphatase non-receptor type 11 (Homo sapiens, UniProt Q06124).
T1 sequence (Q06124 whole entry): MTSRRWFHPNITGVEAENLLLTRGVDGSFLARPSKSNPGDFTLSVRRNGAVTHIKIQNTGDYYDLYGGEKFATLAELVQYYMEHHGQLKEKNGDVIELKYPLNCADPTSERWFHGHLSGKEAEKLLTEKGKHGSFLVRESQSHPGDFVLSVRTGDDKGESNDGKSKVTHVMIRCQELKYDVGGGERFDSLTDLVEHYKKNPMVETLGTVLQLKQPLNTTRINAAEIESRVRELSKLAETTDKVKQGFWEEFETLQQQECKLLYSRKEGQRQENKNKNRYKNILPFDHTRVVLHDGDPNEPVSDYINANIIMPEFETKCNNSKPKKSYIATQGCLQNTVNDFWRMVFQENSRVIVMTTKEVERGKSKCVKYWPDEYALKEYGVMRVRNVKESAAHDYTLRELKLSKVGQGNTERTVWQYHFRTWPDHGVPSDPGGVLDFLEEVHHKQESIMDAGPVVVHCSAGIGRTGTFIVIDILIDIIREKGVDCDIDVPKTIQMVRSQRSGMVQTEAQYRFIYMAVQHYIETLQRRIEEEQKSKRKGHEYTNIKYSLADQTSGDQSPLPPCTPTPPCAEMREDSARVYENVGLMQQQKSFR
Description: PTPN11 enzyme inhibitors – biochemical, selectivity assay for STEP inhibitor project, dose response (AID 602367).
As a reminder, the IC50 is the point on the concentration scale where inhibition reaches its midpoint. A higher IC50 goes with lower potency. Regarding `S=C1N=C(C23CC4CC(CC(C4)C2)C3)CC(c2ccc3c(c2)OCO3)N1` (stereo not given), the 50% inhibitory concentration (IC50) was determined as 15 µM.

`CCOc1cc(CN=Nc2nc(O)c(CC(=O)O)s2)ccc1OCc1ccc(Cl)cc1Cl` [2-[2-[(N''E)-N''-[4-(2,4-dichlorobenzyl)oxy-3-ethoxy-benzylidene]hydrazino]-4-keto-2-thiazolin-5-yl]acetic acid] had an IC50 of 2.2 µM.

For the molecule `C=c1c(O)c(O)c(=C2C(=O)C(=O)C(C)C(=O)C2=O)c(O)c1O` (stereo not given) [(3E)-5-hydroxy-6-methyl-3-(2,3,5-trihydroxy-4-methyl-6-oxo-1-cyclohexa-2,4-dienylidene)cyclohex-5-ene-1,2,4-trione], the IC50 was under 0.16 µM.

As for `O=C1C(=O)N(CCCO)C(c2ccc(Br)cc2)C1C(=O)c1ccc(Br)cc1` (stereo not given) [(4E)-5-(4-bromophenyl)-4-[(4-bromophenyl)-oxidanyl-methylidene]-1-(3-oxidanylpropyl)pyrrolidine-2,3-dione], the IC50 came out at 58.9 µM.

Take `S=C1N=C2C(=C3SCCS3)CCCC2C(c2ccccc2)N1` (stereo not given) [MLS000516376]: it took 5.27 µM to reach half-maximal inhibition (IC50).

`CCN(CC)P(=O)(NC(=O)C(Cl)(Cl)Cl)N(CC)CC` [MLS000564159] showed an IC50 of 3.91 µM.

`CSc1ccc(CN=Nc2ccc(S(=O)(=O)Nc3ccccc3C(=O)O)cc2[N+](=O)[O-])cc1` [MLS002245633] gave an IC50 of 1.11 µM.

As for `O=C(N/N=C/C1C=CC=CC1=O)c1cccc([N+](=O)[O-])c1` (stereo not given) [MLS002667988], the IC50 was found to be 2.39 µM.

`COc1ccc(OC)c(-n2c(O)c3o[nH]c(-c4ccccc4Cl)c-3c2=O)c1` [SMR000046218] displayed an IC50 of 0.469 µM.

On to `COc1ccc(CN=Nc2nc(O)c(CC(=O)O)s2)cc1OCc1ccc(Cl)cc1Cl` [[2-({3-[(2,4-dichlorobenzyl)oxy]-4-methoxybenzylidene}hydrazono)-4-oxo-1,3-thiazolidin-5-yl]acetic acid], for which the IC50 worked out at 4.42 µM.

For the origin of these results see BindingDB's records for doi:10.7270/Q2T43RPN (Burnham Center For Chemical Genomics, 2012).
